Source: patent US12157746B2, “Tetrahydro-1H-pyrazino[2,1-a]isoindolylquinoline compounds for the treatment of autoimmune disease” (F. HOFFMANN-LA ROCHE AG, priority 2018, dated 2024)

Assays:
human TLR9 = target: T1, human TLR9 (Homo sapiens, UniProt Q9NR96); experiment: HEK293-Blue-hTLR-9 cells assay; type: cell-based; details: HEK293-Blue-hTLR9 cells, ODN2006 stimulation, 20 hrs, SEAP reporter; read-out: HEK/hTLR9 IC50
T1 sequence (Q9NR96 26-1032): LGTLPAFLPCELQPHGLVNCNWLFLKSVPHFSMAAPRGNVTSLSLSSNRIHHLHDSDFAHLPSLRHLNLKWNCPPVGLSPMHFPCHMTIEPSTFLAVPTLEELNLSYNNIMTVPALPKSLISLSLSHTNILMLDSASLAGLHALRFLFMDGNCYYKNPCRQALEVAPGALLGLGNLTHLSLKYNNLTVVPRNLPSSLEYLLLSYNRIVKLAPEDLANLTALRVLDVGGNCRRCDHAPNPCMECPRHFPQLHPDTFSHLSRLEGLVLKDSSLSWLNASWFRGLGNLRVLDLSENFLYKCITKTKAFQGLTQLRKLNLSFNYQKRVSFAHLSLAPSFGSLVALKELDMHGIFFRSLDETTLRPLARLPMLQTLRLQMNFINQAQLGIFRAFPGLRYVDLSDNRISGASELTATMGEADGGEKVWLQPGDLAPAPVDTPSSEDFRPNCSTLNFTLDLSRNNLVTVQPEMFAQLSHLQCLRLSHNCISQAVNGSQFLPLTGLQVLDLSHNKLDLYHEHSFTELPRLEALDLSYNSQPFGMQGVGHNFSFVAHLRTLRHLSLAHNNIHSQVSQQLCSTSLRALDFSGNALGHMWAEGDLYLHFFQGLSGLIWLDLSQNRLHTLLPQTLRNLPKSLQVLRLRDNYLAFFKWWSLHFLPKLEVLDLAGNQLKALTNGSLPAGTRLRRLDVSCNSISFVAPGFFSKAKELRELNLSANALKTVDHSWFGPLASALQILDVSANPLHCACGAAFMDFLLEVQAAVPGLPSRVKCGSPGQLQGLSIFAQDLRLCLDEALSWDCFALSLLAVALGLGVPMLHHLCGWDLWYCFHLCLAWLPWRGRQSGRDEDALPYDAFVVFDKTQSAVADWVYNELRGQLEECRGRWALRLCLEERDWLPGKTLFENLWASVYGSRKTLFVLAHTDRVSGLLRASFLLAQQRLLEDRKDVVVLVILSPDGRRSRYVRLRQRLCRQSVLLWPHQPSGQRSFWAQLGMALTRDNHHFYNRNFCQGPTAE
Summary of the method: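 Antagonist mode in HEK293-Blue hTLR9 reporter cells (SEAP under NF-κB/AP-1 sites), stimulated with ODN2006 added from a 20 uM solution. Serially diluted compound (1% DMSO final) was incubated 20 hrs at 37° C. Supernatant SEAP was developed with QUANTI-Blue for 2 h at 37° C and read at 620˜655 nm.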

[1] = Human microsomal stability assay; type: in vitro ADME; details: human liver microsomes 0.5 mg/mL, 37° C., pH 7.4, NADPH regenerating system, 0-30 minutes
Summary of the method: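 Human liver microsomes (0.5 mg/mL) with […] compound in 100 mM potassium phosphate, pH 7.4, 37° C; reaction started with NADPH regenerating system after 10 min preincubation. Parent remaining at 0–30 min quantified by LC-MS/MS; clearance binned low (<7.0), medium (7.0-16.2) or high (16.2-23.2) mL/min/kg.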

SMILES | IC50 (human TLR9) | CL (h) [1]
N#Cc1ccc(N2CCN3Cc4cc(N5CCNCC5)ccc4C3C2)c2cccnc12 (stereo not drawn) [Example 3, 5-(8-piperazin-1-yl-3,4,6,10b-tetrahydro-1H-pyrazino[2,1-a]isoindol-2-yl)quinoline-8-carbonitrile] | 87.7 nM | 6.2 mL/min/kg
CO[C@@H]1CNC[C@@H]1Nc1ccc2c(c1)CN1[C@H](C)CN(c3ccc(C#N)c4ncccc34)C[C@H]21 [Example 60, 5-[(4R,10bS)-8-[[(3S,4R)-4-methoxypyrrolidin-3-yl]amino]-4-methyl-3,4,6,10b-tetrahydro-1H-pyrazino[2,1-a]isoindol-2-yl]quinoline-8-carbonitrile] | 113 nM | 7.4 mL/min/kg
CO[C@H]1CNC[C@H]1Nc1ccc2c(c1)CN1[C@H](C)CN(c3ccc(C#N)c4ncccc34)C[C@H]21 [Example 61, 5-[(4R,10bS)-8-[[(3R,4S)-4-methoxypyrrolidin-3-yl]amino]-4-methyl-3,4,6,10b-tetrahydro-1H-pyrazino[2,1-a]isoindol-2-yl]quinoline-8-carbonitrile] | 93 nM | 7.3 mL/min/kg
Cc1ccc(N2C[C@@H](C)N3Cc4cc(N[C@H]5CNC[C@H]5F)ccc4[C@H]3C2)c2cccnc12 [Example 75, (4R,10bS)—N-[(3S,4R)-4-fluoropyrrolidin-3-yl]-4-methyl-2-(8-methyl-5-quinolyl)-3,4,6,10b-tetrahydro-1H-pyrazino[2,1-a]isoindol-8-amine] | 203 nM | 6.2 mL/min/kg
C[C@@H]1CN(c2ccc(Cl)c3ncccc23)C[C@@H]2c3ccc(N[C@H]4CNC[C@H]4F)cc3CN12 [Example 79, (4R,10b)-2-(8-chloro-5-quinolyl)-N-[(3S,4R)-4-fluoropyrrolidin-3-yl]-4-methyl-3,4,6,10b-tetrahydro-1H-pyrazino[2,1-a]isoindol-8-amine] | 113 nM | 6.2 mL/min/kg
C[C@@H]1CN(c2ccc(C#N)c3ncccc23)C[C@@H]2c3cc(F)c(N4CC5CNCC(C4)O5)cc3CN12 [Example 85, 5-[(4R,10bS)-9-fluoro-4-methyl-8-(9-oxa-3,7-diazabicyclo[3.3.1]nonan-3-yl)-3,4,6,10b-tetrahydro-1H-pyrazino[2,1-a]isoindol-2-yl]quinoline-8-carbonitrile] | 151 nM | 7.8 mL/min/kg
C[C@@H]1CN(c2ccc(C#N)c3ncccc23)C[C@@H]2c3ccc(C(=O)N4CCC(C)(N)CC4)cc3CN12 [Example 88, 5-[(4R,10bS)-8-(4-amino-4-methyl-piperidine-1-carbonyl)-4-methyl-3,4,6,10b-tetrahydro-1H-pyrazino[2,1-a]isoindol-2-yl]quinoline-8-carbonitrile] | 165 nM | 6.2 mL/min/kg

Next, values leading:

IC50 (human TLR9) | CL (h) [1] | SMILES
125 nM | 6.8 mL/min/kg | C[C@H]1CN(c2ccc(C#N)c3ncccc23)C[C@H]2c3ccc(N4CCNCC4)cc3CN12 [Example 2, 5-[(4S,10bR)-4-methyl-8-piperazin-1-yl-3,4,6,10b-tetrahydro-1H-pyrazino[2,1-a]isoindol-2-yl]quinoline-8-carbonitrile]
84.5 nM | 7.5 mL/min/kg | CO[C@H]1CNC[C@@H]1Nc1ccc2c(c1)CN1[C@H](C)CN(c3ccc(C#N)c4ncccc34)C[C@H]21 [Example 62, 5-[(4R,10bS)-8-[[(3S,4S)-4-methoxypyrrolidin-3-yl]amino]-4-methyl-3,4,6,10b-tetrahydro-1H-pyrazino[2,1-a]isoindol-2-yl]quinoline-8-carbonitrile]
95.8 nM | 6.2 mL/min/kg | C[C@@H]1CN(c2ccc(C#N)c3ncccc23)C[C@@H]2c3ccc(N[C@@H]4CCCNC4)cc3CN12 [Example 65, 5-[(4R,10bS)-4-methyl-8-[[(3R)-3-piperidyl]amino]-3,4,6,10b-tetrahydro-1H-pyrazino[2,1-a]isoindol-2-yl]quinoline-8-carbonitrile]
73.5 nM | 7.9 mL/min/kg | C[C@@H]1CN(c2ccc(C#N)c3ncccc23)C[C@@H]2c3ccc(NCCN4CC[C@H](O)C4)cc3CN12 [Example 68, 5-[(4R,10bS)-8-[2-[(3S)-3-hydroxypyrrolidin-1-yl]ethylamino]-4-methyl-3,4,6,10b-tetrahydro-1H-pyrazino[2,1-a]isoindol-2-yl]quinoline-8-carbonitrile]
171 nM | 8.4 mL/min/kg | C[C@@H]1CN(c2ccc(C#N)c3ncccc23)C[C@@H]2c3ccc(NCC4(F)CNC4)cc3CN12 [Example 69, 5-[(4R,10bS)-8-[(3-fluoroazetidin-3-yl)methylamino]-4-methyl-3,4,6,10b-tetrahydro-1H-pyrazino[2,1-a]isoindol-2-yl]quinoline-8-carbonitrile]
